The source of these data is patent US9403813B2, “Azetidine amide derivatives as orexin receptor antagonists” (ACTELION PHARMACEUTICALS LTD, priority 2013, dated 2016).

Test [1] addresses human orexin-1 receptor (Homo sapiens (Human), UniProt O43613). In words: Intracellular calcium measurements (FLIPR), antagonism of orexin-A response. It counts as cell-based. The conditions noted are these: CHO cells expressing human orexin-1 receptor, 3 nM orexin-A, geometric mean if determined several times, read-out: IC50 OX1. Put shortly: (§1)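 CHO cells expressing human OX1 or OX2 receptor, loaded with fluo-4 AM plus probenecid, preincubated with antagonist 120 min before 3 nM orexin-A challenge. FLIPR calcium peak heights compared with agonist-plus-vehicle response. IC50 possibly normalized to on-plate reference; geometric mean of repeat determinations.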

Test [2] concerns the target human orexin-2 receptor (Homo sapiens (Human), UniProt O43614). Described as above. It counts as cell-based. Conditions: CHO cells expressing human orexin-2 receptor, 3 nM orexin-A, geometric mean if determined several times, read-out: IC50 OX2. Put shortly: as §1

human orexin-1 receptor, sequence (O43613 whole entry): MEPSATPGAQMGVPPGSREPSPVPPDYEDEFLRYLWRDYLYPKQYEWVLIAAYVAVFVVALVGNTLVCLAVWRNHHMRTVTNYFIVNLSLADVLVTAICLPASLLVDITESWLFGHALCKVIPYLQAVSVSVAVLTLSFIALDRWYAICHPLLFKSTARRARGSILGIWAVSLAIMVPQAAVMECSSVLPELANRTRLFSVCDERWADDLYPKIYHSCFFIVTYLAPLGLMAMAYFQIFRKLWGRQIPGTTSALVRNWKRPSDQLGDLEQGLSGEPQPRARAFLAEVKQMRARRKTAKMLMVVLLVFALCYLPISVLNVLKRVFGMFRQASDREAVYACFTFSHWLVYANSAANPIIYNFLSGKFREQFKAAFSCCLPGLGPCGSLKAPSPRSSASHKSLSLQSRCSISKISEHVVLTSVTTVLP
human orexin-2 receptor, sequence (O43614 whole entry): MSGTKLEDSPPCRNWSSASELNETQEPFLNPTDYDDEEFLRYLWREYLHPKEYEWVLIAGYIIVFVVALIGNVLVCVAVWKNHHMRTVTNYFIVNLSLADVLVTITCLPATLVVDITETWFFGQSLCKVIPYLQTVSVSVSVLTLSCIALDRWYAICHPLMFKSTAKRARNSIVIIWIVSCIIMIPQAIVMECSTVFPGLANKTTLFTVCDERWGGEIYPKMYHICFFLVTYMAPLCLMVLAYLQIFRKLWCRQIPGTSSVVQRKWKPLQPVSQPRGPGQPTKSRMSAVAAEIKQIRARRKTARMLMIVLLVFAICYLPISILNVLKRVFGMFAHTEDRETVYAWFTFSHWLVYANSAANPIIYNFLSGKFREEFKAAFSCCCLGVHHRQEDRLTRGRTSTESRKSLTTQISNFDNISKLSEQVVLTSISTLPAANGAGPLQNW

For the molecule `Cc1c(Cl)cccc1-c1noc([C@@H]2CCN2C(=O)c2cc(OC(F)(F)F)ccc2-n2nccn2)n1` [Example 65, {(S)-2-[3-(3-Chloro-2-methyl-phenyl)-[1,2,4]oxadiazol-5-yl]-azetidin-1-yl}-(2-[1,2,3]triazol-2-yl-5-trifluoromethoxy-phenyl)-methanone], the results for the IC50 in test [1] and in test [2] were 2730 nM and 676 nM, respectively.
Take `Cc1c(Cl)cccc1-c1noc([C@@H]2CCN2C(=O)c2cc(C(F)(F)F)ccc2-n2nccn2)n1` [Example 66, {(S)-2-[3-(3-Chloro-2-methyl-phenyl)-[1,2,4]oxadiazol-5-yl]-azetidin-1-yl}-(2-[1,2,3]triazol-2-yl-5-trifluoromethyl-phenyl)-methanone]: the IC50 in test [1] is 1600 nM; in test [2] it was 390 nM.
Taken in the same sequence, the figures for `Cc1cccc(-c2ocnc2C(=O)N2CC[C@H]2c2nc(-c3cccc(Cl)c3C)no2)c1` [Example 67, {(S)-2-[3-(3-Chloro-2-methyl-phenyl)-[1,2,4]oxadiazol-5-yl]-azetidin-1-yl}-(5-m-tolyl-oxazol-4-yl)-methanone] were 437 nM and 631 nM.
As to `Cc1c(Cl)cccc1-c1noc([C@@H]2CCN2C(=O)c2ccccc2-n2nccn2)n1` [Example 68, {(S)-2-[3-(3-Chloro-2-methyl-phenyl)-[1,2,4]oxadiazol-5-yl]-azetidin-1-yl}-(2-[1,2,3]triazol-2-yl-phenyl)-methanone], the IC50 in test [1] was found to be 1090 nM; in test [2], 74 nM.
For `Cc1cccc(-c2scnc2C(=O)N2CC[C@H]2c2nc(-c3cccc(Cl)c3C)no2)c1` [Example 69, {(S)-2-[3-(3-Chloro-2-methyl-phenyl)-[1,2,4]oxadiazol-5-yl]-azetidin-1-yl}-(5-m-tolyl-thiazol-4-yl)-methanone], the IC50 in test [1] was 864 nM; in test [2] it was 240 nM.
The like results for `Cc1cc(C(=O)N2CC[C@H]2c2nc(-c3cccc(Cl)c3C)no2)c(-n2nccn2)cc1C` [Example 70, {(S)-2-[3-(3-Chloro-2-methyl-phenyl)-[1,2,4]oxadiazol-5-yl]-azetidin-1-yl}-(4,5-dimethyl-2-[1,2,3]triazol-2-yl-phenyl)-methanone] were, in that order, 97 nM and 2 nM.
The like results for `Cc1cccc(-c2oc(C)nc2C(=O)N2CC[C@H]2c2nc(-c3cccc(Cl)c3C)no2)c1` [Example 71, {(S)-2-[3-(3-Chloro-2-methyl-phenyl)-[1,2,4]oxadiazol-5-yl]-azetidin-1-yl}-(2-methyl-5-m-tolyl-oxazol-4-yl)-methanone] were, in that order, 693 nM and 555 nM.
Regarding `Cc1onc(-c2ccccc2Cl)c1C(=O)N1CC[C@H]1c1nc(-c2cccc(Cl)c2C)no1` [Example 72, {(S)-2-[3-(3-Chloro-2-methyl-phenyl)-[1,2,4]oxadiazol-5-yl]-azetidin-1-yl}-[3-(2-chloro-phenyl)-5-methyl-isoxazol-4-yl]-methanone], the IC50 in test [1] is 1400 nM; in test [2], 666 nM.
Taken in the same sequence, the figures for `Cc1c(Cl)cccc1-c1noc([C@@H]2CCN2C(=O)c2ccccc2-c2ccccc2)n1` [Example 73, Biphenyl-2-yl-{(S)-2-[3-(3-chloro-2-methyl-phenyl)-[1,2,4]oxadiazol-5-yl]-azetidin-1-yl}-methanone] were 383 nM and 20 nM.
With `COc1cc(C(=O)N2CC[C@H]2c2nc(-c3cccc(Cl)c3C)no2)c(-n2nccn2)cc1Cl` [Example 74, (4-Chloro-5-methoxy-2-[1,2,3]triazol-2-yl-phenyl)-{(S)-2-[3-(3-chloro-2-methyl-phenyl)-[1,2,4]oxadiazol-5-yl]-azetidin-1-yl}-methanone], the IC50 in test [1] stood at 578 nM; in test [2], 6 nM.
The like results for `COc1cc(C(=O)N2CC[C@H]2c2nc(-c3ccccc3OC(F)(F)F)no2)c(-n2nccn2)cc1Cl` [Example 75, (4-Chloro-5-methoxy-2-[1,2,3]triazol-2-yl-phenyl)-{(S)-2-[3-(2-trifluoromethoxy-phenyl)-[1,2,4]oxadiazol-5-yl]-azetidin-1-yl}-methanone] were, in that order, 378 nM and 12 nM.
The like results for `Cc1c(Cl)cccc1-c1noc([C@@H]2CCN2C(=O)c2ccc(Cl)cc2-n2nccn2)n1` [Example 76, {(S)-2-[3-(3-Chloro-2-methyl-phenyl)-[1,2,4]oxadiazol-5-yl]-azetidin-1-yl}-(4-chloro-2-[1,2,3]triazol-2-yl-phenyl)-methanone] were, in that order, 909 nM and 11 nM.
Taken in the same sequence, the figures for `O=C(c1ccc(Cl)cc1-n1nccn1)N1CC[C@H]1c1nc(-c2ccccc2OC(F)(F)F)no1` [Example 77, (4-Chloro-2-[1,2,3]triazol-2-yl-phenyl)-{(S)-2-[3-(2-trifluoromethoxy-phenyl)-[1,2,4]oxadiazol-5-yl]-azetidin-1-yl}-methanone] were 616 nM and 28 nM.
Turning to `Cc1ccc(C(=O)N2CC[C@H]2c2nc(-c3cccc(Cl)c3C)no2)c(-n2nccn2)c1` [Example 78, {(S)-2-[3-(3-Chloro-2-methyl-phenyl)-[1,2,4]oxadiazol-5-yl]-azetidin-1-yl}-(4-methyl-2-[1,2,3]triazol-2-yl-phenyl)-methanone], the IC50 was 646 nM in test [1] and 22 nM in test [2].
Taken in the same sequence, the figures for `Cc1ccc(C(=O)N2CC[C@H]2c2nc(-c3ccccc3OC(F)(F)F)no2)c(-n2nccn2)c1` [Example 79, (4-Methyl-2-[1,2,3]triazol-2-yl-phenyl)-{(S)-2-[3-(2-trifluoromethoxy-phenyl)-[1,2,4]oxadiazol-5-yl]-azetidin-1-yl}-methanone] were 338 nM and 17 nM.
The like results for `Cc1c(Cl)cccc1-c1noc([C@@H]2CCN2C(=O)c2cc(Cl)ccc2-n2nccn2)n1` [Example 80, {(S)-2-[3-(3-Chloro-2-methyl-phenyl)-[1,2,4]oxadiazol-5-yl]-azetidin-1-yl}-(5-chloro-2-[1,2,3]triazol-2-yl-phenyl)-methanone] were, in that order, 756 nM and 49 nM.
The like results for `O=C(c1cc(Cl)ccc1-n1nccn1)N1CC[C@H]1c1nc(-c2ccccc2OC(F)(F)F)no1` [Example 81, (5-Chloro-2-[1,2,3]triazol-2-yl-phenyl)-{(S)-2-[3-(2-trifluoromethoxy-phenyl)-[1,2,4]oxadiazol-5-yl]-azetidin-1-yl}-methanone] were, in that order, 338 nM and 47 nM.
As to `Cc1cc(-n2nccn2)c(C(=O)N2CC[C@H]2c2nc(-c3cccc(Cl)c3C)no2)cc1Cl` [Example 82, {(S)-2-[3-(3-Chloro-2-methyl-phenyl)-[1,2,4]oxadiazol-5-yl]-azetidin-1-yl}-(5-chloro-4-methyl-2-[1,2,3]triazol-2-yl-phenyl)-methanone], the IC50 in test [1] worked out at 171 nM; in test [2] it was 10 nM.
Taken in the same sequence, the figures for `Cc1cc(-n2nccn2)c(C(=O)N2CC[C@H]2c2nc(-c3ccccc3OC(F)(F)F)no2)cc1Cl` [Example 83, (5-Chloro-4-methyl-2-[1,2,3]triazol-2-yl-phenyl)-{(S)-2-[3-(2-trifluoromethoxy-phenyl)-[1,2,4]oxadiazol-5-yl]-azetidin-1-yl}-methanone] were 167 nM and 13 nM.
The like results for `Cc1ccc(-n2nccn2)c(C(=O)N2CC[C@H]2c2noc(-c3ccccc3OC(F)(F)F)n2)c1` [Example 84, (5-Methyl-2-[1,2,3]triazol-2-yl-phenyl)-{(S)-2-[5-(2-trifluoromethoxy-phenyl)-[1,2,4]oxadiazol-3-yl]-azetidin-1-yl}-methanone] were, in that order, 103 nM and 11 nM.
Taken in the same sequence, the figures for `Cc1cc(C(=O)N2CC[C@H]2c2noc(-c3ccccc3OC(F)(F)F)n2)c(-n2nccn2)cc1C` [Example 85, (4,5-Dimethyl-2-[1,2,3]triazol-2-yl-phenyl)-{(S)-2-[5-(2-trifluoromethoxy-phenyl)-[1,2,4]oxadiazol-3-yl]-azetidin-1-yl}-methanone] were 34 nM and 3 nM.
On to `COc1cc(C(=O)N2CC[C@H]2c2noc(-c3ccccc3OC(F)(F)F)n2)c(-n2nccn2)cc1C` [Example 86, (5-Methoxy-4-methyl-2-[1,2,3]triazol-2-yl-phenyl)-{(S)-2-[5-(2-trifluoromethoxy-phenyl)-[1,2,4]oxadiazol-3-yl]-azetidin-1-yl}-methanone], for which the IC50 in test [1] was determined as 193 nM; in test [2], 4 nM.
The like results for `COc1cc(C(=O)N2CC[C@H]2c2noc(-c3ccccc3OC(F)(F)F)n2)c(-n2nccn2)cc1F` [Example 87, (4-Fluoro-5-methoxy-2-[1,2,3]triazol-2-yl-phenyl)-{(S)-2-[5-(2-trifluoromethoxy-phenyl)-[1,2,4]oxadiazol-3-yl]-azetidin-1-yl}-methanone] were, in that order, 1340 nM and 78 nM.
As for `COc1cc(C(=O)N2CC[C@H]2c2noc(-c3cccc(F)c3OC)n2)c(-n2nccn2)cc1C` [Example 88, {(S)-2-[5-(3-Fluoro-2-methoxy-phenyl)-[1,2,4]oxadiazol-3-yl]-azetidin-1-yl}-(5-methoxy-4-methyl-2-[1,2,3]triazol-2-yl-phenyl)-methanone], the figures for the IC50 in test [1] and in test [2] were 178 nM and 0.6 nM, respectively.
Take `Cc1cc(C(=O)N2CC[C@H]2c2noc(-c3cccc(F)c3C)n2)c(-n2nccn2)cc1C` [Example 89, (4,5-Dimethyl-2-[1,2,3]triazol-2-yl-phenyl)-{(S)-2-[5-(3-fluoro-2-methyl-phenyl)-[1,2,4]oxadiazol-3-yl]-azetidin-1-yl}-methanone]: the IC50 in test [1] was 82 nM; in test [2], 3 nM.
Taken in the same sequence, the figures for `CCOc1ncccc1-c1nc([C@@H]2CCN2C(=O)c2cc(C)ccc2-n2nccn2)no1` [Example 90, {(S)-2-[5-(2-Ethoxy-pyridin-3-yl)-[1,2,4]oxadiazol-3-yl]-azetidin-1-yl}-(5-methyl-2-[1,2,3]triazol-2-yl-phenyl)-methanone] were 52 nM and 2 nM.
